Test results from DBAASP.
Values after ≈ are worked out from the molar mass of the structure shown. Values joined by “and” are separate entries in the source; they are usually repeats but may differ in a detail not shown here. Equal values may be shown once.

Key:
Assay in all cases: ≥ marks a high value that may be exact or a test limit, other limits are often not marked, values filed in µg/mL are converted to µM
[1] = test system: Staphylococcus aureus ATCC 25923
[2] = test system: Staphylococcus aureus ATCC 43300
[3] = test system: Salmonella enterica subsp. enterica serovar Typhimurium ATCC 14028
[4] = test system: Escherichia coli K99
[5] = test system: Escherichia coli K88
[6] = test system: Pseudomonas aeruginosa ATCC 27853
[7] = test system: Salmonella enterica subsp. enterica serovar Pullorum ATCC 7913
[8] = test system: Salmonella enterica subsp. enterica serovar Typhimurium C77-31
[9] = test system: Candida tropicalis CGMCC 2.1975
[10] = test system: Escherichia coli UB1005
[11] = test system: Staphylococcus epidermidis ATCC 12228
[12] = test system: Escherichia coli 078
[13] = test system: Candida parapsilosis CGMCC 2.3989
[14] = test system: Legionella pneumophila Lens
[15] = test system: Staphylococcus epidermidis
[16] = test system: Staphylococcus aureus ATCC 6538
[17] = test system: Enterobacter cloacae ATCC 23355
[18] = test system: Pseudomonas aeruginosa ATCC 15442
[19] = test system: Bacillus subtilis CCT 2471
[20] = test system: Escherichia coli CCT 1371
[21] = test system: Escherichia coli ATCC 25922
[22] = test system: Staphylococcus saprophyticus
[23] = test system: Acinetobacter baumannii CR17
[24] = test system: Vibrio alginolyticus
[25] = test system: Micrococcus luteus
[26] = test system: Escherichia coli
[27] = test system: Vibrio parahaemolyticus
[28] = test system: Vibrio harveyi
[29] = test system: Vibrio campbellii
[30] = test system: Salmonella enterica subsp. enterica serovar Choleraesuis CVCC 503
[31] = test system: Lacticaseibacillus rhamnosus 1.0911
[32] = test system: Lacticaseibacillus rhamnosus 8014
[33] = test system: Pseudomonas aeruginosa PAO1
[34] = test system: Staphylococcus aureus ATCC 29213
[35] = test system: Salmonella enterica subsp. enterica serovar Pullorum C79-13
[36] = test system: Streptococcus agalactiae BNCC 185941
[37] = test system: Escherichia coli O157:H7 CICC 21530
[38] = test system: Lacticaseibacillus rhamnosus 1.0936
[39] = test system: Lacticaseibacillus rhamnosus 1.9021

`CC[C@H](C)[C@H](NC(=O)[C@H](Cc1c[nH]c2ccccc12)NC(=O)[C@H](CCCN=C(N)N)NC(=O)[C@H](CC(C)C)NC(=O)[C@@H](NC(=O)[C@H](CCCN=C(N)N)NC(=O)[C@H](CCCN=C(N)N)NC(=O)[C@H](C)NC(=O)[C@H](C)N)[C@@H](C)CC)C(=O)N[C@@H](Cc1ccccc1)C(=O)N[C@@H](CCCN=C(N)N)C(N)=O` [AARRILRWIFR] gave an MIC [1] of 8 µM (≈ 11.7 µg/mL), an MIC [2] of 8 µM (≈ 11.7 µg/mL) and an MIC [3] of 4 µM (≈ 5.83 µg/mL). The MIC [4] was 4 µM (≈ 5.83 µg/mL), the MIC [5] was 4 µM (≈ 5.83 µg/mL) and the MIC [6] was 8 µM (≈ 11.7 µg/mL). It also gave an MIC [7] of 4 µM (≈ 5.83 µg/mL), an MIC [8] of 4 µM (≈ 5.83 µg/mL) and an MIC [9] of 4 µM (≈ 5.83 µg/mL). For the same compound, the MIC [10] was 4 µM (≈ 5.83 µg/mL), the MIC [11] was 4 µM (≈ 5.83 µg/mL) and the MIC [12] was 4 µM (≈ 5.83 µg/mL). For the same compound, the MIC [13] was 8 µM (≈ 11.7 µg/mL).

`CC[C@H](C)[C@H](NC(=O)[C@H](Cc1ccccc1)NC(=O)[C@H](CC(=O)O)NC(=O)[C@H](C)NC(=O)[C@@H](N)CCSC)C(=O)N[C@@H](C)C(=O)N[C@@H](CCCCN)C(=O)N[C@H](C(=O)N[C@H](C(=O)N[C@@H](CCC(=O)O)C(=O)N[C@H](C(=O)N[C@H](C(=O)N[C@@H](CCCCN)C(=O)NCC(=O)N[C@@H](CC(C)C)C(=O)N[C@H](C(=O)N[C@@H](CC(=O)O)C(=O)N[C@@H](CCC(N)=O)C(=O)N[C@@H](Cc1ccccc1)C(=O)N[C@H](C(=O)N[C@@H](CCC(N)=O)C(=O)N[C@@H](CCCCN)C(=O)O)[C@@H](C)O)[C@@H](C)CC)C(C)C)[C@@H](C)CC)C(C)C)[C@@H](C)CC` [MADFIAKIVEIVKGLIDQFTQK] was tested, and the MIC [14] was 1.25 µM (≈ 3.14 µg/mL).

With `CC[C@H](C)[C@H](NC(=O)[C@H](C)NC(=O)CNC(=O)[C@H](CC(C)C)NC(=O)[C@@H](NC(=O)[C@H](CCCCN)NC(=O)[C@H](CCCCN)NC(=O)[C@@H](NC(=O)[C@@H](NC(=O)CNC(=O)[C@H](CC(C)C)NC(=O)[C@H](CC(C)C)NC(=O)[C@H](CCCCN)NC(=O)[C@@H](N)CC(C)C)[C@@H](C)CC)C(C)C)C(C)C)C(N)=O` [LKLLGIVKKVLGAI] the MIC [1] was 3 µM (≈ 4.39 µg/mL), the MIC [15] was ≥ 34 µM and the MIC [16] was 17 µM (≈ 24.9 µg/mL). For the same compound, the MIC [17] was ≥ 34 µM, the MIC [18] was ≥ 34 µM and the MIC [19] was ≥ 68 µM. For the same compound, the MIC [20] was ≥ 34 µM, the MIC [21] was 3 µM (≈ 4.39 µg/mL) and the MIC [22] was 3 µM (≈ 4.39 µg/mL).

For `CC[C@H](C)[C@H](NC(=O)[C@H](CC(N)=O)NC(=O)[C@H](CC(C)C)NC(=O)[C@H](CCCCN)NC(=O)[C@H](C)NC(=O)[C@H](CC(C)C)NC(=O)[C@H](C)NC(=O)[C@H](C)NC(=O)[C@H](CC(C)C)NC(=O)[C@H](C)NC(=O)[C@H](CCCCN)NC(=O)[C@H](CCCCN)NC(=O)[C@@H](NC(=O)[C@@H](N)CC(C)C)[C@@H](C)CC)C(N)=O` [LIKKALAALAKLNI], the MIC [23] was ≥ 173 µM.

For `CC[C@H](C)[C@H](NC(=O)[C@H](Cc1ccccc1)NC(=O)[C@H](Cc1ccc(O)cc1)NC(=O)[C@@H]1CCCN1C(=O)[C@H](CCCN=C(N)N)NC(=O)[C@@H](NC(=O)[C@H](CO)NC(=O)[C@H](Cc1ccc(O)cc1)NC(=O)[C@H](CO)NC(=O)[C@H](CS)NC(=O)[C@H](Cc1ccc(O)cc1)NC(C)=O)[C@@H](C)O)C(=O)N[C@@H](CCCN=C(N)N)C(=O)N[C@@H](Cc1c[nH]c2ccccc12)C(=O)N[C@@H](CCC(N)=O)C(=O)N[C@@H](CC(C)C)C(=O)N[C@@H](CCCCN)C(=O)N[C@@H](Cc1ccccc1)C(=O)N[C@@H](CCCCN)C(=O)N[C@H](C(=O)N[C@@H](CCCCN)C(=O)N[C@H](C(=O)N[C@@H](Cc1c[nH]c2ccccc12)C(=O)N[C@@H](CS)C(=O)N1CCC[C@H]1C(N)=O)[C@@H](C)CC)[C@@H](C)O` [YCSYSTRPYFIRWQLKFKTKIWCP], the MIC [15] was ≥ 64 µM, the MIC [24] was ≥ 64 µM and the MIC [25] was ≥ 64 µM. For the same compound, the MIC [26] was > 64 µM, the MIC [27] was ≥ 64 µM and the MIC [28] was ≥ 64 µM. The MIC [29] was ≥ 64 µM.

For `CC[C@H](C)[C@H](NC(=O)CNC(=O)[C@@H](NC(=O)[C@H](Cc1c[nH]c2ccccc12)NC(=O)[C@@H](NC(=O)CNC(=O)[C@@H](NC(=O)[C@H](CCCCN)NC(=O)[C@@H](N)CCCCN)[C@@H](C)CC)[C@@H](C)CC)[C@@H](C)CC)C(=O)N[C@@H](CCCCN)C(=O)N[C@@H](CCCCN)C(N)=O` [KKIGIWIGIKK], the MIC [30] was 8 µM (≈ 10.3 µg/mL), the MIC [2] was 16 µM (≈ 20.5 µg/mL) and the MIC [3] was 16 µM (≈ 20.5 µg/mL). It also gave an MIC [5] of 2 µM (≈ 2.57 µg/mL), an MIC [31] of 16 µM (≈ 20.5 µg/mL) and an MIC [32] of 16 µM (≈ 20.5 µg/mL). For the same compound, the MIC [33] was 16 µM (≈ 20.5 µg/mL), the MIC [6] was 4 µM (≈ 5.13 µg/mL) and the MIC [34] was 16 µM (≈ 20.5 µg/mL). For the same compound, the MIC [35] was 8 µM (≈ 10.3 µg/mL), the MIC [36] was ≥ 128 µM and the MIC [21] was 8 µM and 16 µM. The MIC [37] was 4 µM (≈ 5.13 µg/mL), the MIC [38] was ≥ 64 µM and the MIC [39] was ≥ 32 µM. For the same compound, the MIC [11] was 64 µM (≈ 82.1 µg/mL).
